This is an account of results in patent US20230373930A1, “AMINOIMIDAZOLE FPR2 AGONISTS” (BRISTOL-MYERS SQUIBB COMPANY, priority 2020, published 2023).

Some results are limits rather than exact numbers.

For one experiment, the target named is T1, human FPR2 (Homo sapiens, UniProt P25090).
T1 sequence (P25090 1-351): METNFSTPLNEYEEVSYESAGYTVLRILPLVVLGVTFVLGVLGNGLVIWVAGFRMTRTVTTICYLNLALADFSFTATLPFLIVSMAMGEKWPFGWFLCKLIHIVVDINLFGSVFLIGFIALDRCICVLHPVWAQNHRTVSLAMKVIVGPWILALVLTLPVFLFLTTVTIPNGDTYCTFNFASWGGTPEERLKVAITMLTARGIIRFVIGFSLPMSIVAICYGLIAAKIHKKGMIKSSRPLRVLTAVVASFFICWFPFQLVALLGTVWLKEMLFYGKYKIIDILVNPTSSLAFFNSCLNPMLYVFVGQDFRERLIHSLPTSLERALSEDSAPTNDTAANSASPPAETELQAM
The experiment can be described thus: FPR2 cyclic adenosine monophosphate (cAMP) assay. It counts as cell-based. The note with it: CHO cells overexpressing human FPR2; forskolin 5 μM; inhibition of cAMP production; HTRF; read-out: hFPR2 cAMP2 EC50. The method, then: (§1) FPR2 and FPR1 Cyclic Adenosine Monophosphate (cAMP) Assays. A mixture of forskolin (5 μM final for FPR2 or 10 μM final for FPR1) and IBMX (200 μM final) were added to 384-well Proxiplates (Perkin-Elmer) pre-dotted with test compounds in DMSO (1% final) at final concentrations in the range of 0.020 nM to 100 μM. Chinese Hamster Ovary cells (CHO) overexpressing human FPR1 or human FPR2 receptors were cultured in F-12 (Ham's) medium supplemented with 10% qualified FBS, 250 μg/ml zeocin and 300 μg/ml hygromycin (Life Technologies). Reactions were initiated by adding 2,000 human FPR2 cells per well or 4,000 human FPR1 cells per well in Dulbecco's PBS (with calcium and magnesium) (Life Technologies) supplemented with 0.1% BSA (Perkin-Elmer). The reaction mixtures were incubated for 30 min at room temperature. The level of intracellular cAMP was determined using the HTRF HiRange cAMP assay reagent kit (Cisbio) according to manufacturer's instruction. Solutions of cryptate conjugated anti-cAMP and d2 flurorophore-labelled cAMP were made in a supplied lysis buffer separately. Upon completion of the reaction, the cells were lysed with equal volume of the d2-cAMP solution and anti-cAMP solution. After a 1-h room temperature incubation, time-resolved fluorescence intensity was measured using the Envision (Perkin-Elmer) at 400 nm excitation and dual emission at 590 nm and 665 nm. A calibration curve was constructed with an external cAMP standard at concentrations ranging from 1 μM to 0.1 μM by plotting the fluorescent intensity ratio from 665 nm emission to the intensity from the 590 nm emission against cAMP concentrations. The potency and activity of a compound to inhibit cAMP production was then determined by fitting to a 4-parametric logistic equation from a plot of cAMP level versus compound concentrations.
In general terms: Changes in cAMP serve as a functional read-out for many G protein-coupled receptors.

The next experiment concerns the target T2, human FPR1 (Homo sapiens, UniProt P21462).
T2 sequence (P21462 1-350): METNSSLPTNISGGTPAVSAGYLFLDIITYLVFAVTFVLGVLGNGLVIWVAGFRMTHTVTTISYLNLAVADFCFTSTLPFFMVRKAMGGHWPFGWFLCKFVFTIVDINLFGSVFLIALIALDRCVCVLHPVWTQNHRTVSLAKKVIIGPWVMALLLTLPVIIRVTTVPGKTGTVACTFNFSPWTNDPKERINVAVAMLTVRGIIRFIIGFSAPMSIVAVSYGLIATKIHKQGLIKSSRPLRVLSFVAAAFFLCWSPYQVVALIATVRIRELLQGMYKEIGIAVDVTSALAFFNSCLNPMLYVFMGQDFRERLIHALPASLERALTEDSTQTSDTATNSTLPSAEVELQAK
The experiment can be described thus: FPR1 cyclic adenosine monophosphate (cAMP) assay. It counts as cell-based. The settings on record: CHO cells overexpressing human FPR1; forskolin 10 μM; inhibition of cAMP production; HTRF; read-out: hFPR1 cAMP2 EC50. Here is the method:
as §1

What is called EC50 is the midpoint of the concentration-response curve.

For `COc1cc(F)c(-n2cc(CC(C)C)nc2NC(=O)c2ccc(OC(F)F)cc2)c(F)c1` [Example 35, N-[1-(2,6-Difluoro-4-methoxyphenyl)-4-(2-methylpropyl)-1H-imidazol-2-yl]-4-(difluoromethoxy)benzamide], the figures for the EC50 at human FPR2 and on human FPR1 were 99 nM and 1400 nM, respectively.

Take `COc1cc(F)c(-n2cc(-c3ccc(F)c(F)c3)nc2NC(=O)c2ccc(OC(F)F)cc2)c(F)c1` [Example 36, N-[1-(2,6-Difluoro-4-methoxyphenyl)-4-(3,4-difluorophenyl)-1H-imidazol-2-yl]-4-(difluoromethoxy)benzamide]: the results for the EC50 on human FPR2 and on human FPR1 were 31 nM and 320 nM, respectively.

As for `COc1cc(F)c(-n2cc(C3CC3)nc2NC(=O)c2ccc(OC(F)F)cc2)c(F)c1` [Example 37, N-[4-Cyclopropyl-1-(2,6-difluoro-4-methoxyphenyl)-1H-imidazol-2-yl]-4-(difluoromethoxy)benzamide], the EC50 was found to be 16 nM at human FPR2 and 800 nM on human FPR1.

As for `CCOC(=O)c1cn(-c2c(F)cc(OC)cc2F)c(NC(=O)c2ccc(OC(F)F)cc2)n1` [Example 38, Ethyl 1-(2,6-difluoro-4-methoxyphenyl)-2-[4-(difluoromethoxy)benzamido]-1H-imidazole-4-carboxylate], the EC50 on human FPR2 amounted to 15 nM; on human FPR1, 620 nM.

As to `CCc1cn(-c2c(F)cc(OC)cc2F)c(NC(=O)c2ccc(OC(F)F)cc2)n1` [Example 39, N-[1-(2,6-Difluoro-4-methoxyphenyl)-4-ehtyl-1H-imidazol-2-yl]-4-(difluoromethoxy)benzamide], the figures for the EC50 at human FPR2 and on human FPR1 were 21 nM and 1000 nM, respectively.

Turning to `COc1cc(F)c(-n2cc(-c3nccs3)nc2NC(=O)c2ccc(OC(F)F)cc2)c(F)c1` [Example 40, N-[1-(2,6-Difluoro-4-methoxyphenyl)-4-(1,3-thiazol-2-yl)-1H-imidazol-2-yl]-4-(difluoromethoxy)benzamide], the EC50 at human FPR2 came to 11 nM; on human FPR1, 1000 nM.

For `COc1cc(F)c(-n2cc(C3CCOCC3)nc2NC(=O)c2ccc(OC(F)F)cc2)c(F)c1` [Example 41, N-[1-(2,6-Difluoro-4-methoxyphenyl)-4-(oxan-4-yl)-1H-imdiazol-2-yl]-4-(difluoromethoxy)benzamide], the concentration giving a half-maximal response (EC50) at human FPR2 amounted to 26 nM; at human FPR1, 230 nM.

For `COc1ccc(-n2cc(C(F)(F)C(F)(F)F)nc2NC(=O)c2ccc(OC(F)F)cc2)cc1` [Example 42, 4-(Difluoromethoxy)-N-[1-(4-methoxyphenyl)-4-(1,1,2,2,2-pentafluoroethyl)-1H-imidazol-2-yl]benzamide], the EC50 came out at 48 nM at human FPR2 and 57 nM at human FPR1.

Consider `COc1ccc(-n2cc(C(F)(F)F)nc2NC(=O)c2ccc(OC(F)F)cc2)cc1` [Example 43, 4-(Difluoromethoxy)-N-[1-(4-methoxyphenyl)-4-(trifluoromethyl)-1H-imidazol-2-yl]benzamide], for which the EC50 at human FPR2 was found to be 10 nM; at human FPR1 it was 40 nM.

As to `COc1cc(F)c(-n2cc(C(=O)NCc3cc[nH]n3)nc2NC(=O)c2ccc(OC(F)F)cc2)c(F)c1` [Example 44, 1-(2,6-Difluoro-4-methoxyphenyl)-2-[4-(difluoromethoxy)benzamido]-N-[(1H-pyrazol-3-yl)methyl]-1H-imidazole-4-carboxamide], the EC50 on human FPR2 was 48 nM; at human FPR1, 370 nM.

Consider `COc1ccc(-n2cc(C(=O)N3CCNCC3)nc2NC(=O)c2ccc(OC(F)F)cc2)cc1` [Example 45, 4-(Difluoromethoxy)-N-[1-(4-methoxyphenyl)-4-(piperazine-1-carbonyl)-1H-imidazol-2-yl]benzamide], for which the EC50 was 14 nM at human FPR2 and 710 nM at human FPR1.

Turning to `COc1ccc(-n2cc(C(=O)NCCCO)nc2NC(=O)c2ccc(OC(F)F)cc2)cc1` [Example 46, 2-[4-(Difluoromethoxy)benzamido]-N-(3-hydroxypropyl)-1-(4-methoxyphenyl)-1H-imidazole-4-carboxamide], the 50% effective concentration (EC50) at human FPR2 turned out to be 27 nM; on human FPR1, 210 nM.

Turning to `COc1cc(F)c(-n2cc(C(=O)NCc3cccnc3)nc2NC(=O)c2ccc(OC(F)F)cc2)c(F)c1` [Example 47, 1-(2,6-Difluoro-4-methoxyphenyl)-2-[4-(difluoromethoxy)benzamido]-N-[(pyridin-3-yl)methyl]-1H-imidazole-4-carboxamide], the EC50 worked out at 35 nM at human FPR2 and 110 nM on human FPR1.

For the molecule `COc1cc(F)c(-n2cc(C(=O)NCc3ccncc3)nc2NC(=O)c2ccc(OC(F)F)cc2)c(F)c1` [Example 48, 1-(2,6-Difluoro-4-methoxyphenyl)-2-[4-(difluoromethoxy)benzamido]-N-[(pyridin-4-yl)methyl]-1H-imidazole-4-carboxamide], the EC50 on human FPR2 turned out to be 110 nM; at human FPR1, 600 nM.

Turning to `COc1cc(F)c(-n2cc(C(=O)NC3CCC(O)CC3)nc2NC(=O)c2ccc(OC(F)F)cc2)c(F)c1` (stereo not drawn) [Example 49, 1-(2,6-Difluoro-4-methoxyphenyl)-2-[4-(difluoromethoxy)benzamido]-N-(4-hydroxycyclohexyl)-1H-imidazole-4-carboxamide], the EC50 amounted to 90 nM on human FPR2 and 750 nM at human FPR1.

On to `COc1cc(F)c(-n2cc(C(=O)N3CCC[C@H]3CO)nc2NC(=O)c2ccc(OC(F)F)cc2)c(F)c1` [Example 50, N-[1-(2,6-Difluoro-4-methoxyphenyl)-4-[(2S)-2-(hydroxymethyl)pyrrolidine-1-carbonyl]-1H-imidazol-2-yl]-4-(difluoromethoxy)benzamide], for which the EC50 at human FPR2 was 77 nM; at human FPR1 it was > 10000 nM.

As for `COc1cc(F)c(-n2cc(C(=O)N3CCCC(O)C3)nc2NC(=O)c2ccc(OC(F)F)cc2)c(F)c1` (stereo not drawn) [Example 51, N-[1-(2,6-Difluoro-4-methoxyphenyl)-4-(3-hydroxypiperidine-1-carbonyl)-1H-imidazol-2-yl]-4-(difluoromethoxy)benzamide], the EC50 on human FPR2 came to 83 nM; at human FPR1 it was 2900 nM.

In the case of `COc1cc(F)c(-n2cc(C(=O)N3CCC(O)CC3)nc2NC(=O)c2ccc(OC(F)F)cc2)c(F)c1` [Example 52, N-[1-(2,6-Difluoro-4-methoxyphenyl)-4-(4-hydroxypiperidine-1-carbonyl)-1H-imidazol-2-yl]-4-(difluoromethoxy)benzamide], the EC50 on human FPR2 was 63 nM; at human FPR1 it was > 10000 nM.

For the molecule `COc1cc(F)c(-n2cc(C(=O)NCCO)nc2NC(=O)c2ccc(OC(F)F)cc2)c(F)c1` [Example 53, 1-(2,6-Difluoro-4-methoxyphenyl)-2-[4-(difluoromethoxy)benzamido]-N-(2-hydroxyethyl)-1H-imidazole-4-carboxamide], the EC50 on human FPR2 turned out to be 130 nM; at human FPR1 it was 4100 nM.

With `COc1cc(F)c(-n2cc(C(=O)N3CCOCC3)nc2NC(=O)c2ccc(OC(F)F)cc2)c(F)c1` [Example 54, N-[1-(2,6-Difluoro-4-methoxyphenyl)-4-(morpholine-4-carbonyl)-1H-imidazol-2-yl]-4-(difluoromethoxy)benzamide], the results for the EC50 at human FPR2 and on human FPR1 were 320 nM and > 10000 nM, respectively.

`COc1cc(F)c(-n2cc(C(=O)N3CCN(C)CC3)nc2NC(=O)c2ccc(OC(F)F)cc2)c(F)c1` [Example 55, N-[1-(2,6-Difluoro-4-methoxyphenyl)-4-(4-methylpiperazine-1-carbonyl)-1H-imidazol-2-yl]-4-(difluoromethoxy)benzamide]: the EC50 on human FPR2 is 280 nM; at human FPR1, > 10000 nM.
